This note sets out measurements from patent US11279702B2, “AMPK activators” (Kallyope, Inc., priority 2020, dated 2022).

Data set [1] concerns Madin-Darby Canine Kidney (MDCK) cells. In words: In vitro MDCK epithelial permeability assay (FITC-dextran, calcium switch). The conditions noted are these: low calcium medium, MDCK monolayers. The format is cell-based. An excerpt:
In order to quantitatively measure the effects of transporter substrate AMPK activators on epithelial permeability in vitro, standard calcium switch protocols from the literature were adapted for use with Madin-Darby Canine Kidney (MDCK) cells grown on Corning Transwell inserts for use with fluorescein isothiocyanate-dextran, average molecular weight 4 kDa (FITC-dextran). FITC-dextran is a large, metabolically inert sugar molecule that is not readily transferrable across healthy epithelial barriers in vitro or in vivo. This compound has been tagged with a fluorophore to easily track its movement.
Briefly, MDCK cells were seeded onto Transwell inserts and grown according to manufacturer instructions until confluent. On the day of the experiment, a baseline reading was taken in standard growth media in which FITC-dextran was spiked into the apical chamber and the percent permeation of FITC-dextran from the apical to the basolateral chamber was measured. The inserts were then washed in low calcium medium (LCM) containing either vehicle or compound to remove residual FITC-dextran and calcium, and FITC-dextran was once again spiked into the apical chamber and the percent permeation in LCM was measured. Values were determined by reading fluorescence intensity on a standard plate reader and calculated by fitting back to 12-point standard curve in either growth media or LCM+vehicle, respectively. The fold induction of FITC-dextran permeation to the basolateral chamber when each well was transferred from baseline growth media to LCM was then calculated.

Data set [2] can be described thus: Pharmacokinetics (oral bioavailability, IV parameters). The following applies: mouse, in vivo, C57BL/6 mice; for bioavailability: IV 1 mg/kg, PO 30 mg/kg; for half-life / Vd: IV administration 1 mg/kg; for Vd: read-out: volume of distribution. Here is the method: Compounds were tested for pharmacokinetics in C57BL/6 mice. Compounds 2, 4, and A1 were dosed IV at 1 mg/kg as a formulation of 0.5 mg/mL in 5% DMSO+30% PEG400+65% water and PO at 30 mg/kg as a formulation of 6 mg/mL in 0.25% MC+5% Tween 80+0.02% SDS. Compound 1 was dosed IV at 1 mg/kg as a formulation of 0.50 mg/mL in 5% DMSO+30% PEG400+65% water and PO at 30 mg/kg as a formulation of 6 mg/mL in 0.5% MC+0.5% Tween 80.

The subject of data set [3] is Acetyl CoA Carboxylase (ACC) Phosphorylation in Mouse Muscle. In words: Level of ACC phosphorylation in mouse muscle. The format is in vivo, C57BL/6J mice. Here is the method: Systemic AMPK target engagement in vivo can be assessed by measuring the site-specific phosphorylation of a direct AMPK substrate, acetyl-coenzyme A carboxylase (ACC), in a well perfused tissue such as muscle.
Compounds were formulated in vehicle (0.25% methyl cellulose, 5% Tween 80, 0.02% sodium dodecyl sulfate (SDS) in Hanks' Buffered Salt Solution with Ca^2+ and Mg^2+). Male C57BL/6J mice were administered vehicle or compound once daily for 5 days. On the final day of dosing (day 1 for acute assessment, day 5 for sub-chronic assessment), mice were euthanized by cervical dislocation five hours post dose and samples of skeletal muscle (gastrocnemius) were removed and snap frozen in liquid nitrogen.
Frozen muscle tissues were homogenized. Homogenates were analyzed for protein concentration and equal amounts of protein were assayed for total and phosphorylated ACC (p-ACC) levels using Meso Scale Discovery's Multi-array assay kit. The ratio of p-ACC/total ACC was determined for each sample.

A short description of data set [4]: Concentrations in colon post oral dosing. The format is in vivo, mouse. The conditions noted are these: PO 30 mg/kg. Here is the method:
A time course for colonic exposure to Compound A1 was determined in mouse following a single bolus oral (PO) gavage of 30 mg/kg of A1. Whole colon from cecum to rectum was collected at 2, 4, 6, and 8 hours post-dose and snap frozen. Tissue was homogenized and the concentration of A1 was measured.

Consider `O=C(O)CSc1nc2nc(-c3ccc(-c4ccccc4O)cc3)c(Cl)cc2[nH]1` [Compound 1, 2-((6-chloro-5-(2′-hydroxy-[1,1′-biphenyl]-4-yl)-1H-imidazo[4,5-b]pyridin-2-yl)thio)acetic Acid], for which the “reduction of FITC-dextran permeation relative to vehicle” value in data set [1] (0.1 μM) came to 48%. The “reduction of FITC-dextran permeation relative to vehicle” value in data set [1] (1 μM) stood at 62%. Moreover, in data set [2], the bioavailability (as a rule, the share of a dose that reaches the circulation, judged against a reference dose that is usually intravenous) is less than 1%; the half-life (in general, the time in which the quantity being followed falls by half) is 1.9 h; the Vd stood at 0.7 L/kg. Moreover, in data set [3] (30 mg/kg once daily for 5 days, five hours post dose, gastrocnemius), the “% p-ACC/ACC ratio change vs. Vehicle, Sub-chronic (5 days)” value amounted to 29.6%. The “% p-ACC/ACC ratio change vs. Vehicle, Acute (5 hr)” value in data set [3] (30 mg/kg, day 1, five hours post dose, gastrocnemius) amounted to 6.6%. In addition, the “ratio of pACC/total ACC compared with vehicle control mice” value in data set [3] (30 mg/kg, one-way ANOVA vs vehicle (Dunnett's post-test)) is “not significantly changed”.
On to `O=C(O)CSc1nc2cc(-c3ccc(-c4ccccc4O)cc3)c(Cl)cc2[nH]1` [Compound A1], for which the “reduction of FITC-dextran permeation relative to vehicle” value was determined as 40% in data set [1] (0.1 μM) and 61% in data set [1] (1 μM). The bioavailability in data set [2] is less than 1%. Besides, the half-life in data set [2] was 4.8 h. Also, the Vd in data set [2] amounted to 2.4 L/kg. Further, the colonic exposure profile in data set [4] (2 to 8 hours post-dose) was 122 to 255 µM. Further, the concentration in colon amounted to 254 µM in data set [4] (2 h post dosing), 122 µM in data set [4] (4 h post dosing), 128 µM in data set [4] (6 h post dosing) and 205 µM in data set [4] (8 h post dosing).
